From ChEMBL document CHEMBL1153761, “Bisnicalaterine A, a vobasine-vobasine bisindole alkaloid from Hunteria zeylanica” (J Nat Prod, 2009)
In brackets after ≈: the same amount, converted by molar mass.

What was measured:
Assay type in all cases: functional, cell-based
RPMI-8226 = assay: Cytotoxicity against human RPMI8226 cells after 48 hrs by MTT assay; conditions: RPMI-8226, 48 h
HCT-116 = assay: Cytotoxicity against human HCT116 cells after 48 hrs by MTT assay; conditions: HCT-116, 48 h
MCF7 = assay: Cytotoxicity against human MCF7 cells after 48 hrs by MTT assay; conditions: MCF7, 48 h
HL-60 = assay: Cytotoxicity against human HL60 cells after 48 hrs by MTT assay; conditions: HL-60, 48 h
NCI-H226 = assay: Cytotoxicity against human NCI-H226 cells after 48 hrs by MTT assay; conditions: NCI-H226, 48 h

## C/C=C1/CN(C)[C@H]2Cc3c([nH]c4ccccc34)[C@H](n3c4c(c5ccccc53)C[C@H]3[C@@H](C(=O)OC)[C@H](C[C@H]4O)/C(=C\C)CN3C)C[C@H]1[C@@H]2C(=O)OC [BISNICALATERINE A]
RPMI-8226
  IC50: 31.3 µg/mL (≈ 45.3 µM)
HCT-116
  IC50: 21.9 µg/mL (≈ 31.7 µM)
MCF7
  IC50: 38 µg/mL (≈ 55 µM)
HL-60
  IC50: 16.2 µg/mL (≈ 23.4 µM)
NCI-H226
  IC50: 28.1 µg/mL (≈ 40.7 µM)
